Reference: patent publication US20050220726A1, “Use of sugar esters in cosmetic and/or pharmaceutical preparations” (priority 2003, published 2005)

Tests used:
Type in all cases: cell-based
[1] = tested on: Staphylococcus epidermidis; assay: Agar dilution method (MIC determination); settings: 18 to 24 h at 37° C.
Description: (§1) The antibacterial activity of the test substances was tested by the diffusion method on agar plates or the agar dilution method. In this method, a round filter paper of defined diameter is first impregnated with the test solution and then applied to the surface of an agar plate inoculated beforehand with the test microorganisms. The size of the inhibition zones is then determined after defined times. In particular, it is possible by this method to determine the MIC (Minimum Inhibitory Concentration) as the lowest concentration of test substance with which complete inhibition of the microorganisms can be obtained. Agar dilution method (MIC determination). Various agars were prepared as described above, test substances were added in various concentrations, homogenized and dried. The Petri dishes were then inoculated with quantities of 2 μl of the bacterial suspension. After each drying step the Petri dishes were incubated for 18 to 24 h at 37° C. […] The results represent the averages of double determinations.

[2] = tested on: Propionibacterium acnes; assay: Agar dilution method (MIC determination); settings: 18 to 24 h at 37° C.
Description: as §1

[3] = tested on: human keratinocytes; assay: Growth inhibition on human keratinocytes with EGF; settings: with EGF 10 ng/ml, 3 days, control = 100, control with EGF = 167
Description: Increased proliferation and differentiation of keratinocytes of the hair matrix leads to improved longer hair growth. The following test was carried out to determine the potential of the sugar esters for inhibiting hair growth which is visibly reflected in a reduction in the proliferation of human keratinocyte culture in vitro.
To this end, human keratinocytes were cultivated in a standard cell culture medium containing foetal calf serum (FCS). After incubation for 1 day at 37° C./5% CO2, the growth medium was replaced by standard medium containing 10 ng/ml epidermal growth factor (EGF) and various concentrations of sugar esters dissolved in ethanol (1% by volume).
After incubation for three days, the number of living cells was determined by determining the cell protein content by the Bradford method [Bradford, M. M., A rapid and sensitive method for the quantitation of microgram quantities of protein utilizing the principle of protein-dye binding. Anal. Biochem. (1977), Vol. 72, pp. 248-254].
The results of Table 8 represent the values of triple determinations on two batches expressed in % against a control of cell culture medium without sugar ester.

Fructose caprate
MIC, Staphylococcus epidermidis [1]: 1250 µg/mL | MIC, Propionibacterium acnes [2]: 625 µg/mL | Cell protein content in % ([3]; conc. 0.001 % w/v): 163% | Cell protein content in % ([3]; conc. 0.003 % w/v): 130% | Cell protein content in % ([3]; conc. 0.01 % w/v): 45%
